According to US20260109721A1, “IONIZABLE CATIONIC LIPIDS INCORPORATING SILICON: SYNTHESIS AND LNP FORMULATION” (priority 2023, published 2026):

Assays:
HeLa cells = test: Transfection efficiency with Luciferase (SecNLuc) mRNA, Nano-Glo assay (Method A); type: cell-based; conditions: Luc mRNA, 24 h, luminescence; for Transfection 10 ng mRNA: 10 ng mRNA/well; for Transfection 50 ng mRNA: 50 ng mRNA/well; for Transfection 100 ng mRNA: 100 ng mRNA/well
Procedure: (§1) The synthesized lipids were tested in term of in vitro transfection efficacy and toxicity on HeLa cells. In order to perform the mentioned biological tests, appropriate LNPs had to be formulated from the synthesized lipids. The formulation technique was different in Method A and B. The particle size, polydispersity index (PDI) and zeta potential of resulting LNPs were determined by means of Dynamic Light Scattering technique (DLS). Prior to biological testing the encapsulation efficiency (EE) of the loaded LNPs was determined by using RiboGreen RNA assay. In case of Method A Luc mRNA while in case of Method B GFP mRNA was transfected into the cells. In parallel with the transfection experiments, toxicity of the investigated LNPs was determined, in case of Method A resazurin assay while in case of Method B MTT assay was used. Additionally, the toxicity of the lipids was investigated on HepG2 cells and IC50 values were determined.
• 1. Prepare mRNA solution by adding 100 ng mRNA (SecNLuc, #P009024, RiboPro) to 5 μl Opti-MEM • multiply by number of wells, include different concentrations and add 10% extra • a standard set-up we use is 100 ng-50 ng-10 ng mRNA/well in triplicate, which would need […] mRNA (includes 10% extra)
• 2. (If applicable) Prepare different concentrations in Opti-MEM (for instance 100/50/10 ng). • 3. Add 10 μl to each well and mix carefully by pipetting. • 4. Mix by swirling the plate horizontally at modest speed. Reverse in direction 3 times. • 5. Incubate for 24 hours (incubator).
This protocol is applied to measure luciferase activity for secreted NanoLuc and is based on the protocol by Promega (Nano-Glo® Luciferase Assay System #N1110-1150). The protocol is designed for a 384-wells plate, but volumes can be changed accordingly for other plates.
• 1. Plate cells (HeLa) in 96-well plate, grow until 80% confluent and transfect with SecNanoLuc mRNA and incubate for the desired period (24 h). • 2. After incubation, the translated protein is accumulated in the medium. Transfer medium to a new plate or tubes. • 3. Transfer 12 μl of each sample to a black-walled, clear-bottom 384-well plate • Black-walled plates are important to prevent shine-through of luminescence from other wells; alternatively, multiple wells between samples can be left empty. • 4. Set-up plate reader • 5. Prepare the desired amount of Nano-Glo® Luciferase Assay Reagent by combining one volume of Nano-Glo® Luciferase Assay Substrate with 50 volumes of Nano-Glo® Luciferase Assay Buffer: • a. composition: 100 mM MES pH 6; 1 mM EDTA; […]; 150 mM KCl; 1 mM DTT; 35 mM Thiourea; • b. briefly spin tubes containing substrate in a microcentrifuge before use. • 6. Add and mix (by pipetting) 12 μl Nano-Glo® Luciferase Assay Reagent per well • Wait approximately 3 minutes before measuring luminescence. […] Measure luminescence in plate reader using standard protocol luciferase (this includes mixing sample in plate reader)

[1] = LNP size, PDI and zeta potential by Dynamic Light Scattering (Method A); type: physicochemical; conditions: LNP formulated with the lipid, DLS
Procedure: as §1
• 1. If needed, prepare stock solutions by solving known amounts of lipid powder into an appropriate solvent. The recommended solvent is ethanol and the recommended concentration is typically in the range 10-50 mM. Higher concentrations are preferred to allow flexibility on mRNA-LNP concentration. • 2. Remove the lipid stock solutions from the −20° C. freezer. For long-term storage, −80° C. is used. • 3. Check the vials for precipitation, DOPE (CAS #4004-05-1) (20 mM) and DSPE-PEG (CAS #474922-26-4) (5 mM) may need a 5-30 minute incubation step at 37° C. with intermittent vortexing to resuspend all contents. […] As a last resort, lipids may be heated to 50° C. to resuspend, time should be kept as short as possible to prevent oxidation or other modifying or degradative processes. • 4. Mix the lipids by vortexing for 2 minutes. • 5. […] Cooling the solution prevent excessive evaporation of ethanol or similar solvents upon opening. • 6. Meanwhile, thaw the RNA samples, including the latest SecNLuc control, by inserting the frozen tube in a room temperature aluminium block. • 7. Prepare for each LNP-formulation with identical mRNA component, an RNA master mix according to Table 1 below in a fresh tube. Use of a master mix allows more precise comparison of lipid formulations relative to each other. Split the master mix over a number of fresh tubes equal to the number of samples+controls. Each tube contains 375 μl of mRNA in 10 mM Citrate pH 4.0. • 8. Prepare for each LNP formulation with identical lipid composition a Lipid master mix according to Table 1 below in a fresh tube, exclude the lipid of interest. Use of a master mix allows more precise comparison of the novel ionizable lipid relative to each other. Split the master mix over a number of fresh tubes equal to the number of samples+controls. Each tube contains 65.5 μl of lipid master mix. • 9. Add the ionizable lipid of interest to the equally divide lipid master mix. Mix well by pipetting up and down. Label the tube according to the ionizable lipid used. • 10. Power on the L1 FM (L1 Formulation Machine uses 2 high-speed syringe pumps to mix lipids in organic solvents with mRNA in acidic aquous solution to generate well-defined LNPs. The microfluidic mixing chip involves a dean-type structure performing the high-efficiency mixing at a total flow rate (TFR) of around 12 ml/min at a 3:1 mixing ratio) and allow it to do a calibration of motor positions.
• 18. Fill a fresh syringe (C) through a blunt 18G stainless steel needle with the previously prepared RNA mixture of step 6. The volume should be approximately 85% of total formulation volume+25 μl (dead-volume). Make sure to remove all air bubbles by tapping. • 19. Fill a fresh syringe (D) through a blunt 18G stainless steel needle with the Lipid master mix. The volume should be approximately […] of total formulation volume+25 μl (dead-volume). Again, Make sure to remove all bubbles. • 20. Attach the syringes in the correct orientation, syringe A on the left and syringe B on the right • 21.

Structure (SMILES)	Transfection 10 ng mRNA (HeLa cells)	Transfection 50 ng mRNA (HeLa cells)	Transfection 100 ng mRNA (HeLa cells)	PDI [1]	Size (nm) [1]	Zeta potential (mV) [1]
CCCCC/C=C\C/C=C\CCCCCCCCOC(CCCCCCC/C=C\C/C=C\CCCCC)O[Si](C)(C)OCCCCCCN(C)CC(O)CO (stereo not drawn) [Example 59, (24Z,27Z)-14-((8Z,11Z)-heptadeca-8,11-dien-1-yl)-4,12,12-trimethyl-11,13,15-trioxa-4-aza-12-silatritriaconta-24,27-diene-1,2-diol]	9.07E+03	2.41E+05	5.66E+05	0.105	112.8 nm	−8.941 mV
CCCCC/C=C\C/C=C\CCCCCCCCOC(CCCCCCC/C=C\C/C=C\CCCCC)O[Si](C)(C)OCCCCCCN(C)CCCCO (stereo not drawn) [Example 60, (25Z,28Z)-15-((8Z,11Z)-heptadeca-8,11-dien-1-yl)-5,13,13-trimethyl-12,14,16-trioxa-5-aza-13-silatetratriaconta-25,28-dien-1-ol]	1.76E+05	1.12E+06	1.81E+06	0.041	201.0 nm	−7.785 mV
CCCCC/C=C\C/C=C\CCCCCCCCOC(CCCCCCC/C=C\C/C=C\CCCCC)O[Si](C)(C)OCCCCCCN(CCCCO)CCCCO (stereo not drawn) [Example 62, (25Z,28Z)-15-((8Z,11Z)-heptadeca-8,11-dien-1-yl)-5-(4-hydroxybutyl)-13,13-dimethyl-12,14,16-trioxa-5-aza-13-silatetratriaconta-25,28-dien-1-ol]	1.95E+05	8.70E+05	1.68E+06	0.13	236.8 nm	−10.74 mV
CCCCC/C=C\C/C=C\CCCCCCCCOC(CCCCCCC/C=C\C/C=C\CCCCC)O[Si](C)(C)OCCCCCCN1CCCCC1CO (stereo not drawn) [Example 64, (1-((20Z,23Z)-10-((8Z,11Z)-heptadeca-8,11-dien-1-yl)-8,8-dimethyl-7,9,11-trioxa-8-silanonacosa-20,23-dien-1-yl)piperidin-2-yl)methanol]	3.40E+05	1.89E+06	3.78E+06	0.098	293.7 nm	−9.226 mV
CCCCC/C=C\C/C=C\CCCCCCCCOC(CCCCCN(C)CC(O)CO)O[Si](C)(C)OCCCCCCCC/C=C\C/C=C\CCCCC (stereo not drawn) [Example 66, (22Z,25Z)-4,12,12-trimethyl-10-(((9Z,12Z)-octadeca-9,12-dien-1-yl)oxy)-11,13-dioxa-4-aza-12-silahentriaconta-22,25-diene-1,2-diol]	1.06E+05	1.14E+06	3.31E+06	0.043	223.6 nm	−11.66 mV
C#CCN(C)CCCCCCO[Si](C)(C)OC(CCCCCCC/C=C\C/C=C\CCCCC)OCCCCCCCC/C=C\C/C=C\CCCCC (stereo not drawn) [Example 67, (20Z,23Z)-10-((8Z,11Z)-heptadeca-8,11-dien-1-yl)-N,8,8-trimethyl-N-(prop-2-yn-1-yl)-7,9,11-trioxa-8-silanonacosa-20,23-dien-1-amine]	2.42E+04	4.02E+05	1.79E+06	0.058	127.2 nm	−8.62 mV
CCCCC/C=C\C/C=C\CCCCCCCCOC(CCCCCCC/C=C\C/C=C\CCCCC)O[Si](C)(C)OCCCCCCN(C)Cc1cn(C2[C@H](O)O[C@H](CO)[C@@H](O)[C@@H]2O)nn1 (stereo partly drawn) [Example 68, (4R,5S,6R)-3-(4-((22Z,25Z)-12-((8Z,11Z)-heptadeca-8,11-dien-1-yl)-2,10,10-trimethyl-9,11,13-trioxa-2-aza-10-silahentriaconta-22,25-dien-1-yl)-1H-1,2,3-triazol-1-yl)-6-(hydroxymethyl)tetrahydro-2H-pyran-2,4,5-triol]	2.74E+02	1.30E+03	7.84E+03	0.081	109.9 nm	−6.380 mV
CCCCC/C=C\C/C=C\CCCCCCCCOC(CCCCCCC/C=C\C/C=C\CCCCC)O[Si](C)(C)OCCCCCCN1CCN(CCCCCCO[Si](C)(C)OC(CCCCCCC/C=C\C/C=C\CCCCC)OCCCCCCCC/C=C\C/C=C\CCCCC)CC1 (stereo not drawn) [Example 70, 1,4-bis((20Z,23Z)-10-((8Z,11Z)-heptadeca-8,11-dien-1-yl)-8,8-dimethyl-7,9,11-trioxa-8-silanonacosa-20,23-dien-1-yl)piperazine]	6.46E+02	5.40E+03	2.07E+04	0.061	171.4 nm	−10.47 mV
